Like-named read-outs stand apart in the source and are kept apart here.

This assay concerns the target CFTR (Homo sapiens, UniProt P13569). Description: Membrane Potential Dye, Enteroid Assay B. Type of assay: cell-based. The procedure:
Base medium (ADF+++) consisted of Advanced […], 2 mM Glutamax, 10 mM HEPES, 1 μg/mL penicillin/streptomycin.
Intestinal enteroid maintenance medium (IEMMN) consisted of ADF+++, 1× B27 supplement, 1× N2 supplement, 1.25 mM N-acetyl cysteine, 10 mM Nicotinamide, 50 ng/mL hEGF, 10 nM Gastrin, 1 μg/mL hR-spondin-1, 100 ng/mL hNoggin, TGF-b type 1 inhibitor A-83-01, 100 μg/mL Primocin, 10 μM P38 MAPK inhibitor SB202190.
Bath 1 Buffer consisted of 1 mM MgCl2, 160 mM NaCl, 4.5 mM KCl, 10 mM HEPES, 10 mM Glucose, 2 mM CaCl2).
Chloride Free Buffer consisted of 1 mM Magnesium Gluconate, 2 mM Calcium Gluconate, 4.5 mM Potassium Gluconate, 160 mM Sodium Gluconate, 10 mM HEPES, 10 mM Glucose.
Bath 1 Dye Solution consisted of Bath 1 Buffer, 0.04% Pluronic F127, 20 μM Methyl Oxonol, 30 μM CaCCinh-A01, 30 μM Chicago Sky Blue.
Chloride Free Dye Solution consisted of Chloride Free Buffer, 0.04% Pluronic F127, 20 μM Methyl Oxonol, 30 μM CaCCinh-A01, 30 μM Chicago Sky Blue.
Chloride Free Dye Stimulation Solution consisted of Chloride Free Dye Solution, 10 μM forskolin, 100 μM IBMX, and 300 nM Compound III.
Human intestinal epithelial enteroid cells were obtained from the Hubrecht Institute for Developmental Biology and Stem Cell Research, Utrecht, The Netherlands and expanded in T-Flasks as previously described (Dekkers J F, Wiegerinck C L, de Jonge H R, Bronsveld I, Janssens H M, de Winter-de Groot K M, Brandsma A M, de Jong N W M, Bijvelds M J C, Scholte B J, Nieuwenhuis E E S, van den Brink S, Clevers H, van der Ent C K, Middendorp S and M Beekman J M. A functional CFTR assay using primary cystic fibrosis intestinal organoids. Nat Med. 2013 July; 19(7):939-45.).
3. Enteroid Cell Harvesting and Seeding
Cells were recovered in cell recovery solution, collected by centrifugation at 650 rpm for 5 min at 4° C., resuspended in TrypLE and incubated for 5 min at 37° C. Cells were then collected by centrifugation at 650 rpm for 5 min at 4° C. and resuspended in IEMM containing 10 μM ROCK inhibitor (RI). The cell suspension was passed through a 40 μm cell strainer and resuspended at 1×10^6 cells/mL in IEMM containing 10 μM RI. Cells were seeded at 5000 cells/well into multi-well plates and incubated for overnight at 37° C., 95% humidity and 5% CO2 prior to assay.
5. Membrane Potential Dye, Enteroid Assay B
Enteroid cells were incubated with test compound in IEMM for 18-24 hours at 37° C., 95% humidity and 5% CO2. […] Briefly, cells were washed 5 times in Bath 1 Buffer. Bath 1 Dye Solution was added and the cells were incubated for 25 min at room temperature. Following dye incubation, cells were washed 3 times in Chloride Free Dye Solution. Chloride transport was initiated by addition of Chloride Free Dye Stimulation Solution and the fluorescence signal was read for 15 min. […] Chloride transport was then expressed as a percentage of the chloride transport following treatment with 1 μM (14S)-8-[3-(2-{Dispiro[2.0.2.1]heptan-7-yl}ethoxy)-1H-pyrazol-1-yl]-12,12-dimethyl-2λ^6-thia-3,9,11,18,23-pentaazatetracyclo[17.3.1.111,14.05,10]tetracosa-1(22),5,7,9,19(23),20-hexaene-2,2,4-trione, 3 μM (R)-1-(2,2-difluorobenzo[d][1,3]dioxol-5-yl)-N-(1-(2,3-dihydroxypropyl)-6-fluoro-2-(1-hydroxy-2-methylpropan-2-yl)-1H-indol-5-yl)cyclopropanecarboxamide and 300 nM acute N-[2,4-bis(1,1-dimethylethyl)-5-hydroxyphenyl]-1,4-dihydro-4-oxoquinoline-3-carboxamide triple combination control (% Activity).

Setting [1] is: Table 10, read-out: Ent. B EC50.

Sequence of CFTR (P13569 with tags, fused parts or gaps DEL508-508): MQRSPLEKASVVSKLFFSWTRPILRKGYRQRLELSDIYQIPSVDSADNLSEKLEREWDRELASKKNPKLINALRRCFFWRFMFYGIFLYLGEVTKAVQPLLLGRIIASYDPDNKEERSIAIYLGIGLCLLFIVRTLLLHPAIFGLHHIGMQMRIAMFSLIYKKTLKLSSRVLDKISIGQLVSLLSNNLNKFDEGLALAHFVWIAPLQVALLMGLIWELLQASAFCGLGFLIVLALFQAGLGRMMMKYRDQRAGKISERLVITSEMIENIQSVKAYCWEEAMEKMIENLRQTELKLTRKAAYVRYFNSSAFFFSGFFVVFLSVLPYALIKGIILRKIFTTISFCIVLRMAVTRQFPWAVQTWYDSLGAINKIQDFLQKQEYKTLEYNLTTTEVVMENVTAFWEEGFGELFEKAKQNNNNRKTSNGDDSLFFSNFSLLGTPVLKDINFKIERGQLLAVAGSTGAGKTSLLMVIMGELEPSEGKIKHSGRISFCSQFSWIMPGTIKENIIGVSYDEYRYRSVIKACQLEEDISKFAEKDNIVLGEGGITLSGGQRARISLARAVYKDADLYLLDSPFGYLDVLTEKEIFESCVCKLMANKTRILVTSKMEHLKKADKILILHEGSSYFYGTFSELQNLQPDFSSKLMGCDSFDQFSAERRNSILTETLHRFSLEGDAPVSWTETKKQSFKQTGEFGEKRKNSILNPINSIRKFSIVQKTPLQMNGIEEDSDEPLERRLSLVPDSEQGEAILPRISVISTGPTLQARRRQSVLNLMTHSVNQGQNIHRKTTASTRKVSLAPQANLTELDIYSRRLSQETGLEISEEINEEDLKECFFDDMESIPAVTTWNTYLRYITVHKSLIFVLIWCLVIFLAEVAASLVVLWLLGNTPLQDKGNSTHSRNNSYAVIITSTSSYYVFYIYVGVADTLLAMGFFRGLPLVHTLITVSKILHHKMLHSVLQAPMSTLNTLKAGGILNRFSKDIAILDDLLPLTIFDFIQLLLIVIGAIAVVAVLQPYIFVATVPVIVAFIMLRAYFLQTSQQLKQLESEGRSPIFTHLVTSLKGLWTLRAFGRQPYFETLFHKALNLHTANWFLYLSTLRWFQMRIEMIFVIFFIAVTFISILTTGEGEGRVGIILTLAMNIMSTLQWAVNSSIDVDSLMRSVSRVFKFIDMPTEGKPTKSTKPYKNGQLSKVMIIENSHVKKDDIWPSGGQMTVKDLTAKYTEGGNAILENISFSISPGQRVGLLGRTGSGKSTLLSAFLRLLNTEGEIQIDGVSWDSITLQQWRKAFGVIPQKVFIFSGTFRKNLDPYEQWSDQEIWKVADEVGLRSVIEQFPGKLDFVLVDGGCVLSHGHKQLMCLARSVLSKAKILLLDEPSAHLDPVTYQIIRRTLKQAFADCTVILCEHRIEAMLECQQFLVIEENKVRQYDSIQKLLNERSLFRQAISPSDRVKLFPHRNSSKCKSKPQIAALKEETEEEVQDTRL

As for `Cc1cccc(C)c1-c1cc2nc(n1)NS(=O)(=O)c1cccc(c1)C(=O)N(C1CC3(CCN(CCOC(C)C)CC3)C1)[C@H](CC(C)C)CO2` [Compound 300], under “read-out: Ent. B EC50”, the EC50 was under 1000 nM. As to `Cc1cccc(C)c1-c1cc2nc(n1)NS(=O)(=O)c1cccc(n1)C(=O)N(C1CC3(CC3)C1)[C@H](CC(C)C)CO2` [Compound 164, (11R)-6-(2,6-Dimethylphenyl)-11-isobutyl-2,2-dioxo-12-spiro[2.3]hexan-5-yl-9-oxa-2λ^6-thia-3,5,12,18,19-pentazatricyclo[12.3.1.14,8]nonadeca-1(18),4(19),5,7,14,16-hexaen-13-one], the “Ent. B Max Activity (%)” value is “+++ (+++ is >60%)”. Also, where the note is “read-out: Ent. B EC50”, the EC50 was under 1000 nM. In the case of `Cc1cccc(C)c1-c1cc2nc(n1)NS(=O)(=O)c1cccc(c1)C(=O)N(C1CC(NC3CCOCC3)C1)[C@H](CC(C)C)CO2` (stereo partly drawn) [Compound 71, (11R)-6-(2,6-dimethylphenyl)-11-isobutyl-2,2-dioxo-12-[3-(tetrahydropyran-4-ylamino)cyclobutyl]-9-oxa-2λ^6-thia-3,5,12,19-tetrazatricyclo[12.3.1.14,8]nonadeca-1(18),4(19),5,7,14,16-hexaen-13-one], the “Ent. B Max Activity (%)” value (Table 9) is “+++ (+++ is >60%)”. For the same molecule, under “Table 9, read-out: Ent. B EC50”, the concentration giving a half-maximal response (EC50) was under 1000 nM.

Turning to `CCC(=O)NC1CC2(C1)CC(N1C(=O)c3cccc(c3)S(=O)(=O)Nc3nc(cc(-c4c(C)cccc4C)n3)OC[C@H]1CC(C)(C)C)C2` (stereo partly drawn) [Compound 353], the “Ent. B Max Activity (%)” value (Table 10) is on record as “+++ (+++ is >60%)”. Also, the EC50 under setting [1] was under 1000 nM. For `CCC(O)(CC)[C@H]1CC2(C[C@H](N3C(=O)c4cccc(c4)S(=O)(=O)Nc4nc(cc(-c5c(C)cccc5C)n4)OC[C@H]3CC(C)(C)C)C2)C1` (stereo partly drawn) [Compound 408], in that order: “+++ (+++ is >60%)” and under 1000 nM. For `Cc1cccc(C)c1-c1cc2nc(n1)NS(=O)(=O)c1cccc(c1)C(=O)N(C1CC3(CCN(C4COC4)CC3)C1)[C@H](CC(C)C)CO2` [Compound 24, (11R)-6-(2,6-Dimethylphenyl)-11-isobutyl-12-[7-(oxetan-3-yl)-7-azaspiro[3.5]nonan-2-yl]-2,2-dioxo-9-oxa-2λ^6-thia-3,5,12,19-tetrazatricyclo[12.3.1.14,8]nonadeca-1(18),4(19),5,7,14,16-hexaen-13-one], the “Ent. B Max Activity (%)” value (Table 9) is reported as “+++ (+++ is >60%)”. Under “Table 9, read-out: Ent. B EC50”, the EC50 was under 1000 nM. In the case of `Cc1cccc(C)c1-c1cc2cc(n1)NS(=O)(=O)c1cccc(c1)C(=O)N(C1CC3(CC3)C1)[C@H](CC(C)C)CO2` [Compound 389], the “Ent. B Max Activity (%)” value was “+++ (+++ is >60%)”. The EC50 (read-out: Ent. B EC50) is under 1000 nM. On to `COC(=O)N1C[C@H]2C[C@@H](C1)C2N1C(=O)c2cccc(c2)S(=O)(=O)Nc2nc(cc(-c3c(C)cccc3C)n2)OC[C@H]1CC(C)(C)C` (single isomer, unassigned) [Compound 143], for which the “Ent. B Max Activity (%)” value (Table 10) is recorded as “++ (++ is 30-60%)”. Besides, the EC50 (read-out: Ent. B EC50, Table 10) is under 1000 nM. For `Cc1cccc(C)c1-c1cc2nc(n1)NS(=O)(=O)c1cccc(c1)C(=O)N(C1CC(C)(OC(F)(F)F)C1)[C@H](CC(C)(C)C)CO2` (single isomer, unassigned) [Compound 157], for the setting “Table 10”, the “Ent. B Max Activity (%)” value is “++ (++ is 30-60%)”. For the same molecule, the EC50 under setting [1] is under 1000 nM. For `Cc1cccc(C)c1-c1cc2nc(n1)NS(=O)(=O)c1cccc(c1)C(=O)N([C@H]1C[C@]3(C[C@H](NC(C)C)C3)C1)[C@H](CC1(C(F)(F)F)CC1)CO2` (stereo partly drawn) [Compound 265], the “Ent. B Max Activity (%)” value (Table 9) is “+++ (+++ is >60%)”. The EC50 (Table 9, read-out: Ent. B EC50) is under 1000 nM. In the case of `COC(=O)N[C@H]1C[C@@H](N2C(=O)c3cccc(c3)S(=O)(=O)Nc3nc(cc(-c4c(C)cccc4C)n3)OC[C@H]2CC(C)(C)C)C1` (single isomer, unassigned) [Compound 168], the “Ent. B Max Activity (%)” value (Table 9) is “+++ (+++ is >60%)”. The EC50 (Table 9, read-out: Ent. B EC50) is under 1000 nM. As for `Cc1cccc(C)c1-c1cc2nc(n1)NS(=O)(=O)c1cccc(c1)C(=O)N([C@H]1C[C@@H](N3C[C@@H](O)CC3=O)C1)[C@H](CC(C)C)CO2` (stereo in doubt) [Compound 370], where the note is “Table 10”, the “Ent. B Max Activity (%)” value is recorded as “++ (++ is 30-60%)”. Also, the EC50 under setting [1] is under 1000 nM. As to `CC(=O)N[C@H]1C[C@@]2(C1)C[C@H](N1C(=O)c3cccc(c3)S(=O)(=O)Nc3nc(cc(-c4c(C)cccc4C)n3)OC[C@H]1CC1(C(F)(F)F)CC1)C2` (stereo partly drawn) [Compound 85, N-((2R,4r,6R)-6-((R)-1^6-(2,6-Dimethylphenyl)-3,3-dioxido-5-oxo-7-((1-(trifluoromethyl)cyclopropyl)methyl)-9-oxa-3-thia-2,6-diaza-1(2,4)-pyrimidina-4(1,3)-benzenacyclononaphane-6-yl)spiro[3.3]heptan-2-yl)acetamide], the “Ent. B Max Activity (%)” value (Table 9) was “+++ (+++ is >60%)”. For the same molecule, the EC50 (Table 9, read-out: Ent. B EC50) is under 1000 nM.

Take `Cc1cccc(C)c1-c1cc2nc(n1)NS(=O)(=O)c1cccc(c1)C(=O)N(C1CC(C(=O)N3CCOCC3)C1)[C@H](CC(C)C)CO2` (stereo partly drawn) [Compound 307]: the “Ent. B Max Activity (%)” value is given as “+++ (+++ is >60%)”. The concentration for a half-maximal effect (EC50) (read-out: Ent. B EC50) is under 1000 nM. For `Cc1cccc(C)c1-c1cc2nc(n1)NS(=O)(=O)c1cccc(c1)C(=O)N(C1CC3(CC(O)C3)C1)[C@H](CC(C)(C)C)CO2` (single isomer, unassigned) [Compound 122], the “Ent. B Max Activity (%)” value (Table 10) is listed as “+++ (+++ is >60%)”. The EC50 under setting [1] was under 1000 nM. Consider `Cc1cccc(C)c1-c1cc2nc(n1)NS(=O)(=O)c1cccc(c1)C(=O)N([C@H]1C[C@@H](OC(F)(F)C(F)(F)F)C1)[C@H](CC(C)C)CO2` [Compound 210], for which, where the note is “Table 10”, the “Ent. B Max Activity (%)” value is “++ (++ is 30-60%)”. Further, the EC50 under setting [1] was under 1000 nM. For the molecule `Cc1cccc(C)c1-c1cc2nc(n1)NS(=O)(=O)c1cc(n(C)n1)C(=O)N(C1CC3(CCN(C)CC3)C1)[C@H](CC(C)C)CO2` [Compound 293], the “Ent. B Max Activity (%)” value (Table 9) is “+++ (+++ is >60%)”. Further, the EC50 (Table 9, read-out: Ent. B EC50) is 1000 to 3000 nM.

Regarding `Cc1cccc(C)c1-c1cc2nc(n1)NS(=O)(=O)c1cccc(c1)C(=O)N([C@H]1C[C@@H](C(C)(C)O)C1)[C@H](CC(C)(C)C)CO2` (single isomer, unassigned) [Compound 141], the “Ent. B Max Activity (%)” value (Table 10) is given as “+++ (+++ is >60%)”. In addition, the EC50 under setting [1] was under 1000 nM. As for `Cc1cccc(C)c1-c1cc2nc(n1)NS(=O)(=O)c1cccc(c1)C(=O)N(C1CC(N)C1)[C@H](CC(C)(C)C)CO2` (single isomer, unassigned) [Compound 165], the “Ent. B Max Activity (%)” value (Table 10) was “++ (++ is 30-60%)”. The EC50 under setting [1] was under 1000 nM. In the case of `[H][C@]1(N2C(=O)c3cccc(c3)S(=O)(=O)Nc3nc(cc(-c4c(C)cccc4C)n3)OC[C@H]2CC2(C(F)(F)F)CC2)C[C@@]2(C[C@H](N(C)C)C2)C1` (stereo partly drawn) [Compound 297], the “Ent. B Max Activity (%)” value is “+++ (+++ is >60%)”. Also, the EC50 (read-out: Ent. B EC50) was under 1000 nM.

For `Cc1cccc(C)c1-c1cc2nc(n1)NS(=O)(=O)c1cc(n(C)n1)C(=O)N(C1CC3(C1)CC(C(C)(C)O)C3)[C@H](CC(C)(C)C)CO2` (stereo partly drawn) [Compound 436], the “Ent. B Max Activity (%)” value (Table 10) is listed as “+++ (+++ is >60%)”. Further, under setting [1], the EC50 was under 1000 nM. Consider `CCN(C(=O)OC)C1CC(N2C(=O)c3cccc(c3)S(=O)(=O)Nc3nc(cc(-c4c(C)cccc4C)n3)OC[C@H]2CC(C)(C)C)C1` (single isomer, unassigned) [Compound 237], for which, for the setting “Table 10”, the “Ent. B Max Activity (%)” value is “++ (++ is 30-60%)”. Further, under setting [1], the EC50 is under 1000 nM. For `Cc1cccc(C)c1-c1cc2nc(n1)NS(=O)(=O)c1cccc(n1)C(=O)N([C@H]1C[C@@H](C(C)(C)O)C1)[C@H](CC(C)(C)C)CO2` [Compound 410], in that order: “+++ (+++ is >60%)” and under 1000 nM.
